From US6936447B1, “Autoinducer molecule” (priority 2000, dated 2005)
Like-named read-outs stand apart in the source and are kept apart here.

Assays:
[1] = system: conjugal transfer genes in Agrobacterium tumefaciens; details: literature (Zhang et al. 1993); cited from earlier work
[2] = system: lasB promoter activity in E. coli MG4 (pKDT17, lasR + lasB::lacZ); experiment: P. aeruginosa autoinducer bioassay (lasB::lacZ β-galactosidase reporter); type: cell-based; details: for β-galactosidase (lasB::lacZ promoter activity): average of four experiments ± range
Description: (§1) For production of PAI, cultures of P. aeruginosa PAO1 or E. coli TB1 containing pLasI-1 were grown to the late-logarithmic phase in A medium (Maniatis, T., Fritsch, E. F., and Sambrook, J. (1992) Molecular Cloning: A Laboratory Manual, ed. Nolan C. (Cold Spring Harbor Laboratory, Cold Spring Harbor, N.Y.), 2nd Ed) supplemented with 0.4% glucose, 0.05% yeast extract, and 1 mM MgSO4 with shaking at 37° C., unless otherwise specified. For subsequent use in autoinducer bioassays, E. coli MG4 containing pKDT17 was grown in supplemented A medium at 30° C. with shaking, and E. coli VJS533 containing pHV200I^− was grown in L broth (Silhavy, T. J., Berman, M. L. and Enquist, L. W. (1984) Experiments with Gene Fusions (Cold Spring Harbor Lab., Cold Spring Harbor, N.Y.), P. 217) at 30° C. with shaking. For plasmid screening and maintenance, ampicillin (100 μg/ml) was included in E. coli cultures, and carbenicillin (200 ug/ml) was included in cultures of P. aeruginosa.
For the bioassay, overnight cultures of E. coli containing the lasB-promoter reporter, pKDT17 were diluted in supplemented A mediun to an optical density of 0.1 at 660 nm, and stored on ice. Each bioassay consisted of 2 ml of the cell suspension plus the test sample. After 5.5 h at 30° C. with shaking, β-galactosidase activity was measured by the CHCl3-sodium dodecyl sulfate method described by Miller (Miller, J. A. (1976) Experiments in Molecular Genetics (Cold Spring Harbor Lab., Cold Spring Harbor, N.Y.), pp. 352-355). As described in Example 1, there was a linear dose response to autoinducer in this bioassay. Without addition of autoinducer, β-galactosidase activities were 25±10 Miller units, and with saturating amounts of autoinducer, β-galactosidase activities were 1300±200 Miller units. A unit of P. aeruginosa autoinducer activity is defined as that amount required to achieve ½-saturation in the bioassay.

[3] = system: V. fischeri luminescence genes (LuxR) in E. coli VJS533 (pHV200I−); details: literature (Eberhard et al. 1986), cited from earlier work
[4] = system: V. fischeri luminescence genes (LuxR) in E. coli VJS533 (pHV200I−); experiment: V. fischeri autoinducer bioassay (luminescence); type: cell-based
Description: as §1
The quantitative assay for VAI was based on those described elsewhere (Kaplan, H. B. and Greenberg, E. P. (1985) J. Bacteriol. 163, 1210-1214; Bainton, N. J., Bycroft, B. W., Chhabra, S. R., Stead, P., Gledhill, L., Hill, P. J., Rees, C. E. D., Winson, M. K., Salmond, G. P. C., Stewart, G. S. A. B. and Williams, P. (1992) Gene 116, 87-91; Nealson, K. H. (1977) Arch. Microbiol. 112, 73-79). E. coli VJS533 containing pHV200I^− was used to test for V. fischeri autoinducer activity. The plasmid, pHV200I^− contains all of the V. fischeri genes necessary for autoinducible luminescence in E. coli, however, the gene encoding autoinducer synthase, luxI, is inactivated such that E. coli containing pHV200I^− is not luminescent without addition of VAI. Overnight cultures of E. coli containing pHV200I^− were diluted to an optical density of 0.01 at 660 nm in an assay medium consisting of 0.05% tryptone, 0.03% glycerol, 100 mM NaCl, 50 mM MgSO4, and 10 mM potassium phosphate, pH 7. […] After 3 hours at room temperature, luminescence was measured by using a Beckman LS 1800 Scintillation Counter that was set for single photon counting. […]

LasR protein = target: T1, LasR protein (Pseudomonas aeruginosa, UniProt P25084); experiment: Activation of the LasR protein by optical isomers
T1 construct: expressed in transfected cells; host or cells: E. coli MG4 containing pKDT17 (plac-lasR plus lasB::lacZ reporter)
T1 sequence (P25084 whole entry): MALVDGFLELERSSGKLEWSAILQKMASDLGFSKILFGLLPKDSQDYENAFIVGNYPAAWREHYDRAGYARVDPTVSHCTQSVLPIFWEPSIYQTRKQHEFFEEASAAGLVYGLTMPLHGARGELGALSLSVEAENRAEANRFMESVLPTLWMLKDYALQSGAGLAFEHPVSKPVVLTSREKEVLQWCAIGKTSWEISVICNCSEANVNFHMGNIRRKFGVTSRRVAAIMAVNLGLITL

For `CCCCCC(=O)CC(=O)NC1CCOC1=O` (centres unmarked) [AAI, N-(3-oxooctanoyl)homoserine lactone], the “activity as the A. tumefaciens autoinducer” value [1] is given as “shows activity”, the “activity as P. aeruginosa autoinducer (inducer of lasB promoter), in words” value (from here on “activity as P. aeruginosa autoinducer”) [2] is given as “considerable activity” and the “β-galactosidase (lasB::lacZ promoter activity)” value (“β-galactosidase” below) ([2]; 50 nM autoinducer added) is given as 56 +/− 5 Miller units. The “β-galactosidase” value ([2]; 500 nM autoinducer added) was 733 +/− 50 Miller units, the “concentration required for activity as the P. aeruginosa autoinducer, compared with PAI” value ([2]; relative to PAI) was “higher” and the “maximal response as P. aeruginosa autoinducer, compared with PAI” value ([2]; relative to PAI) was “lower”. The “activity with V. fischeri LuxR / luminescence genes” value [3] was “shows activity” and the “activity with V. fischeri LuxR / luminescence genes” value ([3]; listed as N-(3-oxooctanoyl)homoserine lactone) was “some activity”.
With `CCCCCCCCCC(=O)CC(=O)NC1CCOC1=O` [N-(3-oxododecanoyl) L-homoserine lactone, N-(3-oxododecanoyl)homoserine lactone] the “VAI activity (induction of luminescence) of HPLC peaks” value ([4]; HPLC fractions of PAI peaks) was “no significant VAI activity”, the “activity of the isomer (activation of the LasR protein)” value (LasR protein) was “active form” and the “activity as P. aeruginosa autoinducer” value [2] was “biologically active”. It also gave an EC50 ([2]; Escherichia coli, read-out: half-maximal response in P. aeruginosa autoinducer bioassay) of 3 to 5 nM.
In the case of `CCCCCCCCCC(=O)CC(=O)N[C@H]1CCOC1=O` (single isomer, unassigned) [D-isomer, N-(3-oxododecanoyl)homoserine lactone], the “activity of the isomer (activation of the LasR protein)” value (LasR protein) is reported as “small amount of activity” and the “inhibition of the ability of the L-isomer to activate the LasR protein” value (LasR protein; by attaching to the autoinducer binding domain of LasR) is reported as “can inhibit”.
For `CCCC(=O)CC(=O)N[C@H]1CCOC1=O` [VAI, N-(3-oxohexanoyl)homoserine lactone], the “concentration giving maximal response in the V. fischeri autoinducer bioassay” value [4] was “about 50 nM”, the EC50 ([4]; synthetic VAI standard curve, read-out: half-maximal response in V. fischeri autoinducer bioassay (one unit of activity)) was ~25 nM and the “activity as P. aeruginosa autoinducer” value [2] was “did not show any detectable activity”. For the same compound, the “β-galactosidase” value ([2]; 50 nM autoinducer added) was 33 +/− 3 Miller units, the “β-galactosidase” value ([2]; 500 nM autoinducer added) was 34 +/− 1 Miller units and the “activity in the P. aeruginosa autoinducer bioassay” value ([2]; concentrations as high as 1 uM) was “no detectable activity”.
